From article PMC11117661, “Development of a Novel In Silico Classification Model to Assess Reactive Metabolite Formation in the Cysteine Trapping Assay and Investigation of Important Substructures” (Biomolecules, 2024)
Where two headings read alike, the source gives them in different places.

What was measured:
[1] = cysteine trapping assay ([35S]cysteine, HPLC with radiomatic detector) for reactive metabolites; conditions: for RI integrated area: human liver microsome 2 mg/mL, L-[35S]-Cysteine, NADPH, 37 °C, 2 h; for outcome in the cysteine trapping assay: threshold area 1000
Method: (§1) The reagents for making the reaction solution were phosphate buffer (pH 7.4; 100 mM), ethylenediaminetetraacetic acid (EDTA; 1 mM) (Tokyo Kasei, Tokyo, Japan), MgCl2 hexahydrate (Fuji Film Wako Co., Ltd., Osaka, Japan, reagent special grade; 3 mM), glucose-6-phosphate (G6P; 5 mM) (Roche, Basel, Switzerland), G6P dehydrogenase (G6PDH; 1 IU) (Oriental Yeast Co., Ltd., Tokyo, Japan), human liver microsome solution (Xenotech, Kansas City, MO, USA; 2 mg/mL), and L-[35S]-Cysteine (PerkinElmer Japan Co., Ltd., Kanagawa, Japan; 3.7 MBq/mL), which were prepared using ultrapure water. The evaluation compound was dissolved in dimethyl sulfoxide (DMSO) and its concentration was adjusted to 4 mM. This was used as a substrate solution.
(§2) On ice, 239 µL of the reaction solution was dispensed into a glass tube and then 1.25 µL of the substrate solution was added, mixed, and placed in a water bath (PERSONAL-11, Taitec Co., Ltd., Saitama, Japan) at 37 °C. After pre-incubation for 5 min, 10 µL of 25 mM nicotinamide adenine dinucleotide phosphate (NADPH) (Roche, Basel, Switzerland) solution was added and mixed to a final concentration of 20 µM to initiate a metabolic reaction and incubated in a water bath at 37 °C for 2 h. After incubation, 500 µL of acetonitrile was added and mixed, and the tube was chilled on ice to deproteinize, after which 50 µL of 250 mM GSH solution was added and mixed to stop the reaction, and centrifuged (approximately 1500× g, 4°C, 10 min, CF16RXII, Hitachi, Ltd., Tokyo, Japan). After centrifugation, 750 µL of the supernatant was transferred to a new glass tube and concentrated by vacufugation (VC-96N, Taitec Co., Ltd., Saitama, Japan) for 2 h. After concentrating the solution, we added 100 µL of the redissolving solution (40% methanol solution), mixed it with a vortex (IS-MBI minimixer, Ikeda Rika Co., Ltd., Tokyo, Japan) to redissolve, and then the sample was placed in a filter tube [Merck Millipore, Darmstadt, Germany] and centrifuged (approximately 5000× g, room temperature, 10 min).
(§3) Both High Performance Liquid Chromatography (HPLC) (Nexera XR, Shimadzu Corporation, Kyoto, Japan) and a radiomatic detector (Radiomatic 610TR, PerkinElmer Japan Co., Ltd.) were used to analyze the prepared samples. The 35S content was detected by running the separated sample via the 45-min analytical method through a radiomatic detector. The mobile phase was composed of a gradient of 0.1% (v/v) formic acid/water and 0.1% (v/v) formic acid/acetonitrile, and the chromatographic separation was performed using a column (Synergi 4 μm Hydro-RP 80A 150 × 3.00 mm, Phenomenex, Torrance, CA, USA).
(§4) Considering this, the amount of covalent binding in microsomes in the in vitro covalent binding test of 50 pmol/g or more was judged as a risk. The threshold of the total RI integrated area in cysteine trapping at that time was about 1000 counts. Therefore, we labeled compounds with more than 1000 counts of RI integrated area as positive, and those with less than 1000 counts as negative.

[2] = human, 2 h, 20 µM, pH 7.4
Method: as §1, §2, §3, §4

| RI integrated area [1] | outcome in the cysteine trapping assay [1] | RI integrated area [2] | SMILES |
| --- | --- | --- | --- |
| 162.1 count |  |  | CC/C(=C(\c1ccccc1)c1ccc(OCCN(C)C)cc1)c1ccccc1 [Tamoxifen] |
| 263.4 count |  |  | COc1cc(C(=O)NS(=O)(=O)c2ccccc2C)ccc1Cc1cn(C)c2ccc(NC(=O)OC3CCCC3)cc12 [Zafirlukast] |
|  |  | 243.5 count | Nc1c2c(nc3ccccc13)CCCC2 [Tacrine] |
| 521.7 count | negative |  | Cc1c(C)c2c(c(C)c1O)CCC(C)(COc1ccc(CC3SC(=O)NC3=O)cc1)O2 (stereo not shown) [Troglitazone] |
| 3783.7 count |  |  | O=C(O)COc1ccc(C(=O)c2cccs2)c(Cl)c1Cl [Tienilic acid] |
| 217.5 count |  |  | Cc1cc(CC(=O)O)n(C)c1C(=O)c1ccc(Cl)cc1 [Zomepirac] |
| 593.9 count |  |  | CC(C)c1nc(CN(C)C(=O)N[C@H](C(=O)N[C@@H](Cc2ccccc2)C[C@H](O)[C@H](Cc2ccccc2)NC(=O)OCc2cncs2)C(C)C)cs1 [Ritonavir] |
| 3667.2 count |  |  | CC(C)NCC(O)COc1cccc2ccccc12 (stereo not shown) [Propranolol] |
| 1593.7 count |  |  | CN(CCOc1ccc(CC2SC(=O)NC2=O)cc1)c1ccccn1 (stereo not shown) [Rosiglitazone] |

The remaining lines, values behind:

| SMILES | RI integrated area [1] | outcome in the cysteine trapping assay [1] | RI integrated area [2] |
| --- | --- | --- | --- |
| CC[C@H](C)C(=O)O[C@H]1C[C@H](O)C=C2C=C[C@H](C)[C@H](CC[C@@H](O)C[C@@H](O)CC(=O)O)[C@H]21 [Pravastatin] | 25.4 count |  |  |
| CCc1ccc(CCOc2ccc(CC3SC(=O)NC3=O)cc2)nc1 (stereo not shown) [Pioglitazone] | 105.8 count | negative |  |
| O=C1NC(=O)C(c2ccccc2)(c2ccccc2)N1 [Phenytoin] | 34.7 count |  |  |
| CCc1oc2ccccc2c1C(=O)c1cc(Br)c(O)c(Br)c1 [Benzbromarone] | 4516.4 count |  |  |
| COc1ccc2c(c1)c(CC(=O)O)c(C)n2C(=O)c1ccc(Cl)cc1 [Indomethacin] | 89.0 count |  |  |
| CCN(CC)Cc1cc(Nc2ccnc3cc(Cl)ccc23)ccc1O [Amodiaquine] | 346.7 count |  |  |
| O=C(O)Cc1ccccc1Nc1c(Cl)cccc1Cl [Diclofenac] | 1230.1 count |  |  |
| C[C@H]1COc2c(N3CCN(C)CC3)c(F)cc3c(=O)c(C(=O)O)cn1c23 [Levofloxacin] | 150.3 count |  |  |
| COC(=O)[C@H](c1ccccc1Cl)N1CCc2sccc2C1 [Clopidogrel] | 708.2 count |  |  |
| NC(=O)N1c2ccccc2C=Cc2ccccc21 [Carbamazepine] | 61.8 count |  |  |
| Cn1c(=O)c2c(ncn2C)n(C)c1=O [Caffeine] | 22.4 count |  |  |
| Cc1c(N(C)C)c(=O)n(-c2ccccc2)n1C [Aminopyrine] | 44.3 count |  |  |
| CC(C)C(=O)Nc1ccc([N+](=O)[O-])c(C(F)(F)F)c1 [Flutamide] | 680.4 count |  |  |
| CNCCC(Oc1ccc(C(F)(F)F)cc1)c1ccccc1 (stereo not shown) [Fluoxetine] | 153.8 count |  |  |
